In US9862717B2 (Merck Patent GmbH, priority 2014, dated 2018):

target: T1, CDK8/CycC (Homo sapiens, UniProt P49336); test: FRET based Lanthascreen binding competition assay for CDK8 inhibitory activity; settings: CDK8 co-expressed with CycC; class symbols
T1 construct: purchased Invitrogen PV4402
In short: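 Competition binding of a dye-labeled ATP-competitive Alexa647 probe to CDK8 co-expressed with CycC, Eu-labeled via biotinylated anti-His antibody/streptavidin.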

T1 sequence (P49336 whole entry): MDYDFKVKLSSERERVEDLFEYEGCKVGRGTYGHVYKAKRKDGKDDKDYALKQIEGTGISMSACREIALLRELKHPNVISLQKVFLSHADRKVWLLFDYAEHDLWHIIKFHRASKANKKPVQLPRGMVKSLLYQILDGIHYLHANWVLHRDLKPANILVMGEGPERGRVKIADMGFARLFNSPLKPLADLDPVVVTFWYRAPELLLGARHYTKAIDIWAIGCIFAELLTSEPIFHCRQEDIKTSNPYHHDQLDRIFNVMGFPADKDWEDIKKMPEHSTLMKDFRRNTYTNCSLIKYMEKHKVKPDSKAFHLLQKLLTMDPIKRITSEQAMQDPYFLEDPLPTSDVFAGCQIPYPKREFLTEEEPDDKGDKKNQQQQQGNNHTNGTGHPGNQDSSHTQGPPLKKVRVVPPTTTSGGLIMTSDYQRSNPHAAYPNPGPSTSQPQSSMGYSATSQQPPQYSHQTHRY
T1 sequence (P24863 whole entry partner): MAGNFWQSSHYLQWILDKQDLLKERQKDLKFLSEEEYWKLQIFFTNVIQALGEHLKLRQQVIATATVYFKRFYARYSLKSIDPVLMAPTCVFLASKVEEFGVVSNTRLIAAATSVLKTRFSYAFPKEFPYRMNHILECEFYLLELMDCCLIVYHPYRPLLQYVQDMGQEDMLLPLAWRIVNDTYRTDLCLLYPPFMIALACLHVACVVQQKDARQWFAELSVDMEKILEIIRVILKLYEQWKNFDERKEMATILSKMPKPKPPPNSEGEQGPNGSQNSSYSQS

Row | IC50 [µM] | SMILES
1 | 0.1 to 1 | Cc1n[nH]c2ncc(C(=O)N3CCCC3c3ccccc3OCC(F)(F)F)cc12 (centres unmarked) [compound 162, (3-Methyl-1H-pyrazolo[3,4-b]pyridin-5-yl)-{2-[2-(2,2,2-trifluoro-ethoxy)-phenyl]-pyrrolidin-1-yl}-methanone]

same assay, conditions: CDK8 co-expressed with CycC; class symbols; read-out: IC50

Row | SMILES | IC50 [µM]
2 | Cc1ccc([C@H]2CCCN2C(=O)c2cnc3[nH]nc(C)c3c2)cc1 [compound 137, (3-Methyl-1H-pyrazolo[3,4-b]pyridin-5-yl)-((R)-2-p-tolyl-pyrrolidin-1-yl)-methanone] | 1 to 10
3 | COc1ccccc1C1CCCN1C(=O)c1cnc2[nH]nc(C)c2c1 (centres unmarked) [compound 141, [2-(2-Methoxy-phenyl)-pyrrolidin-1-yl]-(3-methyl-1H-pyrazolo[3,4-b]pyridin-5-yl)-methanone] | 0.1 to 1
4 | Cc1n[nH]c2ncc(C(=O)N3C[C@@H](O)C[C@H]3c3ccc(F)cc3)cc12 [compound 145, [(2S,4S)-2-(4-Fluoro-phenyl)-4-hydroxy-pyrrolidin-1-yl]-(3-methyl-1H-pyrazolo[3,4-b]pyridin-5-yl)-methanone] | 0.1 to 1
5 | Nc1n[nH]c2ccc(C(=O)N3CCCC3c3cccc(Cl)c3)cc12 (centres unmarked) [compound 147, (3-Amino-1H-indazol-5-yl)-[2-(3-chloro-phenyl)-pyrrolidin-1-yl]-methanone] | 0.1 to 1
6 | Nc1n[nH]c2ccc(C(=O)N3CCCC3c3ccccc3Cl)cc12 (centres unmarked) [compound 148, (3-Amino-1H-indazol-5-yl)-[2-(2-chloro-phenyl)-pyrrolidin-1-yl]-methanone] | 0.1 to 1
7 | Cc1n[nH]c2ncc(C(=O)N3CCCCC[C@H]3c3cccc(F)c3)cc12 [compound 150, [(S)-2-(3-Fluoro-phenyl)-azepan-1-yl]-(3-methyl-1H-pyrazolo[3,4-b]pyridin-5-yl)-methanone] | 0.1 to 1
8 | O=C(c1cnc2[nH]nc(C3CC3)c2c1)N1CCC[C@@H]1c1ccc(Cl)cc1 [compound 153, [(R)-2-(4-Chloro-phenyl)-pyrrolidin-1-yl]-(3-cyclopropyl-1H-pyrazolo[3,4-b]pyridin-5-yl)-methanone] | 0.1 to 1
9 | Cc1n[nH]c2ncc(C(=O)N3CC(C)CC3c3ccc(C(F)(F)F)cc3)cc12 (centres unmarked) [compound 160, (3-Methyl-1H-pyrazolo[3,4-b]pyridin-5-yl)-[4-methyl-2-(4-trifluoromethyl-phenyl)-pyrrolidin-1-yl]-methanone] | 0.1 to 1
10 | O=C(c1cnc2[nH]nc(C3CC3)c2c1)N1CCCCC1c1ccccc1 (centres unmarked) [compound 168, (3-Cyclopropyl-1H-pyrazolo[3,4-b]pyridin-5-yl)-(2-phenyl-piperidin-1-yl)-methanone] | 0.1 to 1
11 | O=C(c1cnc2[nH]nc(C(F)(F)F)c2c1)N1CCCCC1c1ccccc1 (centres unmarked) [compound 169, (2-Phenyl-piperidin-1-yl)-(3-trifluoromethyl-1H-pyrazolo[3,4-b]pyridin-5-yl)-methanone] | 0.1 to 1
12 | Cc1n[nH]c2ncc(C(=O)N3CC[C@@H]3c3ccc(F)cc3)cc12 [compound 175, [(R)-2-(4-Fluoro-phenyl)-azetidin-1-yl]-(3-methyl-1H-pyrazolo[3,4-b]pyridin-5-yl)-methanone] | 0.1 to 1
13 | Cc1n[nH]c2ncc(C(=O)N3CCNC(c4ccccc4)C3)cc12 (centres unmarked) [compound 182, (3-Methyl-1H-pyrazolo[3,4-b]pyridin-5-yl)-(3-phenyl-piperazin-1-yl)-methanone] | 1 to 10
14 | O=C(c1cnc2[nH]nc(C(F)(F)F)c2c1)N1CCCC[C@@H]1c1ccccc1 [compound 183, ((R)-2-Phenyl-piperidin-1-yl)-(3-trifluoromethyl-1H-pyrazolo[3,4-b]pyridin-5-yl)-methanone] | 0.1 to 1
15 | O=C(c1cnc2[nH]nc(C(F)(F)F)c2c1)N1CCCC[C@H]1c1ccccc1 [compound 184, ((S)-2-Phenyl-piperidin-1-yl)-(3-trifluoromethyl-1H-pyrazolo[3,4-b]pyridin-5-yl)-methanone] | 0.1 to 1
16 | Cc1n[nH]c2ncc(C(=O)N3C[C@@H](C(N)=O)[C@H](c4ccc(Cl)cc4)C3)cc12 [compound 185, (3S,4R)-4-(4-Chloro-phenyl)-1-(3-methyl-1H-pyrazolo[3,4-b]pyridine-5-carbonyl)-pyrrolidine-3-carboxylic acid amide] | 1 to 10
17 | Cc1n[nH]c2ncc(C(=O)N3C[C@H](C(N)=O)[C@@H](c4ccc(Cl)cc4)C3)cc12 [compound 186, (3R,4S)-4-(4-Chloro-phenyl)-1-(3-methyl-1H-pyrazolo[3,4-b]pyridine-5-carbonyl)-pyrrolidine-3-carboxylic acid amide] | 0.1 to 1

Other lines, results leading:

Row | IC50 [µM] | SMILES
18 | < 0.01 | Cc1ccc([C@@H]2CCCN2C(=O)c2cnc3[nH]nc(C)c3c2)cc1 [compound 136, (3-Methyl-1H-pyrazolo[3,4-b]pyridin-5-yl)-((S)-2-p-tolyl-pyrrolidin-1-yl)-methanone]
19 | 0.1 to 1 | Cc1n[nH]c2ncc(C(=O)N3CCC[C@@H](c4ccccc4)C3)cc12 [compound 139, (3-Methyl-1H-pyrazolo[3,4-b]pyridin-5-yl)-((S)-3-phenyl-piperidin-1-yl)-methanone]
20 | 0.01 to 0.1 | COc1ccccc1[C@@H]1CCCN1C(=O)c1cnc2[nH]nc(C)c2c1 [compound 143, [(S)-2-(2-Methoxy-phenyl)-pyrrolidin-1-yl]-(3-methyl-1H-pyrazolo[3,4-b]pyridin-5-yl)-methanone]
21 | 0.01 to 0.1 | Cc1n[nH]c2ncc(C(=O)N3CC[C@@H](N)[C@H]3c3ccc(F)cc3)cc12 [compound 144, [(2R,3R)-3-Amino-2-(4-fluoro-phenyl)-pyrrolidin-1-yl]-(3-methyl-1H-pyrazolo[3,4-b]pyridin-5-yl)-methanone]
22 | < 0.01 | O=C(c1cnc2[nH]nc(C3CC3)c2c1)N1CCC[C@H]1c1ccc(Cl)cc1 [compound 152, [(S)-2-(4-Chloro-phenyl)-pyrrolidin-1-yl]-(3-cyclopropyl-1H-pyrazolo[3,4-b]pyridin-5-yl)-methanone]
23 | < 0.01 | Cc1n[nH]c2ncc(C(=O)N3CCC[C@H]3c3ccc(C(F)(F)F)cc3)cc12 [compound 157, (3-Methyl-1H-pyrazolo[3,4-b]pyridin-5-yl)-[(S)-2-(4-trifluoromethyl-phenyl)-pyrrolidin-1-yl]-methanone]
24 | 0.01 to 0.1 | Cc1n[nH]c2ncc(C(=O)N3CCC(C)C3c3ccc(C(F)(F)F)cc3)cc12 (centres unmarked) [compound 159, (3-Methyl-1H-pyrazolo[3,4-b]pyridin-5-yl)-[3-methyl-2-(4-trifluoromethyl-phenyl)-pyrrolidin-1-yl]-methanone]
25 | 0.01 to 0.1 | Nc1n[nH]c2ccc(C(=O)N3CCCC3c3ccc(Cl)c(F)c3)cc12 (centres unmarked) [compound 167, (3-Amino-1H-indazol-5-yl)-[2-(4-chloro-3-fluoro-phenyl)-pyrrolidin-1-yl] methanone]
26 | < 0.01 | Cc1n[nH]c2ncc(C(=O)N3CC[C@@H](C)[C@H]3c3ccc(C(F)(F)F)cc3)cc12 [compound 172, (3-Methyl-1H-pyrazolo[3,4-b]pyridin-5-yl)-[(2S,3R)-3-methyl-2-(4-trifluoromethyl-phenyl)-pyrrolidin-1-yl]-methanone]
27 | 0.01 to 0.1 | Cc1n[nH]c2ncc(C(=O)N3CCCC3c3ccc(Cl)c(F)c3)cc12 (centres unmarked) [compound 179, [2-(4-Chloro-3-fluoro-phenyl)-pyrrolidin-1-yl]-(3-methyl-1H-pyrazolo[3,4-b]pyridin-5-yl)-methanone]

same assay, conditions: IC50 [μM], CDK8 co-expressed with CycC; class symbols

Row | IC50 [µM] | SMILES
28 | 0.01 to 0.1 | O=C(c1ccc2[nH]ncc2c1)N1CCC[C@H]1c1ccc(Br)cc1 [compound 156]
29 | < 0.01 | Cc1n[nH]c2ccc(C(=O)N3CCOCC3c3ccc(Cl)cc3)cc12 (centres unmarked) [compound 178]
